Source: patent US9457056B2, “Peptides comprising alternating hydrophobic and anionic amino acids for treatment of osteoporosis” (Ben-Gurion University of the Negev Research and Development …, priority 2007, dated 2016)
“Also recorded” adds a separate entry of the source. Ends that are not written are not given here.

Experiments:
[1] = Formation of hydrogels by additional peptides; assay type: physicochemical; details: 4% weight in 100 μl NaOH solution
Text: Additional peptides were studies in order to elucidate the role of termini Proline residue in hydrogel formation, to test the effect of peptide length and peptide termini protecting groups.

Sprague-Dawley rats [2] = experiment: Antigenicity (immunity) test, single intramuscular administration of hydrogel; assay type: in vivo, rat; details: single i.m. hydrogel, 7.5 times maximum estimated human dose, 14 days
Experimental: Immunity tests were performed to determine the safety of the compositions of the present invention. […] The control group was injected with saline. Rats were scarified after 14 days, blood was withdrawn for future hematology and biochemistry tests.

Sprague-Dawley rats [3] = experiment: In vivo toxicity, single subcutaneous administration of hydrogel
Experimental: A control group was injected with saline. Rats were sacrificed after 14 days. Hematology and biochemistry blood tests were performed, the injected area was excised and examined as well as other internal organs.

[4] = Effect of Ca+2 ions on hydrogel formation; assay type: physicochemical; parameters: key: Hydrogel formation (✓); * partial formation of hydrogel over hours; details: peptide final concentration 1.34% weight
Experimental: With the addition of Ca^+2 ions to the solution of the peptide the system may form a hydrogel. These hydrogels are obtained at peptide concentrations smaller and at pH values higher than those without the ions. […] It is possible that the Ca^+2 may also induce cross linking between strands in a mechanism similar to that of alginate hydrogel formation. The concentration of Ca^+2 ions in the hydrogel are a few times larger than in the body serum (2.5 mM). This is envisaged to yield a better environment for the bone forming osteoblast cells. In any event, the Ca^+2 provides an additional parameter to control the hydrogel rheological and stability properties.
Peptides, 2% (w/v) in the liquid state were dissolved in 0.05 M NaOH to yield 7.0<pH<7.5 solution.

SaOS2 cells = experiment: Quantitative evaluation of SaOS2 growth on 2D hydrogels (LIVE/DEAD Viability/Cytotoxicity Kit); assay type: cell-based; details: 3% w/v hydrogel, vs uncoated wells
Experimental: On 2D hydrogels: Quantitative studies of cell proliferation were performed in 2D systems of PFD-13 (3% w/v) hydrogels that were formed with DMEM+bicarbonate at pH ˜7.0 in 96-wells plates.
The plates were sterilized by gamma irradiation (5000 rad). 50 μl of culture media were pipette on top of each hydrogel for conditioning. After 1 h at room temp, SaOS2 cells were seeded on top of the hydrogels. Single cell suspensions obtained after trypsinization which diluted to concentration of 1×10^5 cells/1 ml. 50 μl of this cell suspension was seeded on top of each hydrogel. Triplicates of none coated wells were seeded and served as control. After 1 h of incubation, medium was added to complete the volume to 200 μl in each well ([…] and 150 μl in the uncoated wells). Culture medium was exchanged twice a week. Viability of the cells was evaluated every week, over a month, using the LIVE/DEAD Viability/Cytotoxicity Kit (Molecular Probes, Invitrogen, France) following the manufacturer's instructions. […] Ethidium-III enters dead cells with damaged membranes and undergoes a 40-fold enhancement of fluorescence upon binding to their DNA, leading to a red fluorescent signal. The plates were measured in a plate reader (calcein: Ex=495 nm, Em=515 nm. ethidium: Ex=530 nm, Em=635 nm). After measuring the medium fluorescence, the gain was set constant for each probe. […]

human stomach = details: healthy volunteers, doses prescribed for osteoporosis and Pagets disease of bone; cited from earlier work
[5] = single s.c. hydrogel, about 10 times clinically relevant amount

Compound	Resultant pH ([1]; NaOH conc. 0.03)	Resultant pH ([1]; NaOH conc. 0.05)	Self supporting gel formation assigned + ([1]; NaOH conc. 0.05)	Hydrogel formation upon the addition of CaCl2 sol. ([4]; Ca+2 final concentration 20 mM)	Hydrogel formation upon the addition of CaCl2 sol. ([4]; Ca+2 final concentration 27 mM)	Hydrogel formation upon the addition of CaCl2 sol. ([4]; Ca+2 final concentration 33 mM)	also measured
Pro-Asp-(Phe-Asp)6 (chain 1 PDFDFDFDFDFDFD; chain 2 PDFDFDFDFDFDFD)	~6	~7	after several hrs.	–	–	–	–
Pro-Asp-Phe-Asp (PDFD; printed: Pro-Asp-Phe-Asp)	~3	~4	liquid	–	–	–	Self supporting gel formation assigned + ([1]; NaOH conc. 0.03): liquid
Ac-PDFDFDFDFDFDP-NH2 [Ac-Pro-Asp-(Phe-Asp)5-Pro-NH2]	~6	>7.5	Viscous liquid	–	–	–	Appearance during the experiment (Sprague-Dawley rats [2]): appeared normal; Survival (Sprague-Dawley rats [2]): All rats survived; Levels of LDH (Sprague-Dawley rats [3]; rats sacrificed after 7 days): slightly high levels; Levels of LDH (Sprague-Dawley rats [3]; rats sacrificed after 14 days): normal; Behavior (Sprague-Dawley rats [3]; [5]): no signs of abnormal behavior; Body weight compared to control group (Sprague-Dawley rats [3]; [5]): did not lose weight; Internal organs (Sprague-Dawley rats [3]; [5]): appeared normal; Survival (Sprague-Dawley rats [3]; [5]): All rats survived
PELELELELELEP [PLE-13, PE(LE)5P]	–	–	–	✓	✓	✓	–
PEFEFEFEFEFEP [PFE-13, PE(FE)5P]	–	–	–	✓	✓	✓	–
PDFDFDFDFDFDP [PFD-13, PD(FD)5P]	–	–	–	–	✓	✓	Cytotoxicity (EthD-III staining) (SaOS2 cells): not significant; also recorded: non toxic to the cells
(Phe-Asp)6 (chain 1 FDFDFDFDFDFD; chain 2 FDFDFDFDFDFD)	~6	~7	–	–	–	–	–
PDLDLDLDLDLDP [PLD-13, PD(LD)5P]	–	–	–	*	*	*	–
NCCCC(O)(P(=O)(O)O)P(=O)(O)O [Alendronate, alendronate]	–	–	–	–	–	–	Gastric injury (human stomach): cause erosions and ulcers in the human stomach
